target: T1, Recombinant human renin (Homo sapiens, UniProt P00797); test: In vitro enzymatic activity assay of renin inhibitors (fluorescence, QXL520/HiLyteFluo488 peptide substrate); format: biochemical; details: recombinant human renin 3 nM, 1 μM substrate, pre-incubated 10 minutes at 37° C., incubation one hour, pH 7.4, 5% DMSO; read-out: IC50 of Exemplified Compounds Against Renin
T1 construct: isolate the active form (residues 67-406); made in house; host or cells: FreeStyle 293-F cells, transient expression of pcDNA3.1(+)/hREN
T1 sequence (P00797 67-406): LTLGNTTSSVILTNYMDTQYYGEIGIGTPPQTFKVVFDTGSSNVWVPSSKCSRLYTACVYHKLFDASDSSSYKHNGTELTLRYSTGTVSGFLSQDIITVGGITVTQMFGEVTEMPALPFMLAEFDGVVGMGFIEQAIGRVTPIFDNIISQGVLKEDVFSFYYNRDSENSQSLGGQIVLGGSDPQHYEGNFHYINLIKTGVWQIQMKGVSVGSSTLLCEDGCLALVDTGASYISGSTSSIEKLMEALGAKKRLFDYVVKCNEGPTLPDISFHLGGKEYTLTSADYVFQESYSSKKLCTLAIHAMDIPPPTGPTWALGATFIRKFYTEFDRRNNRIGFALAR

Row | IC50 | Structure (SMILES)
1 | 500 to 1000 nM | CC(=O)N1CCCC(n2c(-c3ccccc3)c(C(=O)N3CCNC[C@H]3Cc3ccccc3)[nH]c2=O)C1 (stereo partly drawn) [Example 104, 1-(1-Acetylpiperidin-3-yl)-4-((R)-2-benzylpiperazine-1-carbonyl)-5-phenyl-1H-imidazol-2(3H)-one]
2 | > 1000 nM | Cc1ccccc1-n1c(-c2ccccc2)c(C(=O)N2CCNCC2)n(CCNC(=O)CC(C)C)c1=O [Example 238, 3-Methyl-N-(2-(2-oxo-4-phenyl-5-(piperazine-1-carbonyl)-3-o-tolyl-2,3-dihydro-1H-imidazol-1-yl)ethyl)butanamide]
3 | > 1000 nM | COCCCOc1cccc(-n2c(-c3ccccc3)c(C(=O)N3CCNCC3)n(CCCNC(=O)CC(C)C)c2=O)c1 [Example 181, N-(3-(3-(3-(3-Methoxypropoxy)phenyl)-2-oxo-4-phenyl-5-(piperazine-1-carbonyl)-2,3-dihydro-1H-imidazol-1-yl)propyl)-3-methylbutanamide]
4 | 500 to 1000 nM | O=C(c1[nH]c(=O)n(-c2cccc(N3CCOCC3)c2)c1-c1ccccc1)N1CCNCC1 [Example 22, 1-(3-Morpholinophenyl)-5-phenyl-4-(piperazine-1-carbonyl)-1H-imidazol-2(3H)-one]
5 | > 1000 nM | O=C(c1[nH]c(=O)n(-c2ccccc2)c1-c1ccc(Cl)cc1)N1CCNCC1 [Example 28, 5-(4-Chlorophenyl)-1-phenyl-4-(piperazine-1-carbonyl)-1H-imidazol-2(3H)-one]
6 | > 1000 nM | Cc1ccccc1-n1c(-c2ccccc2)c(C(=O)N2CCNCC2)n(CCNC(=O)C(C)C)c1=O [Example 236, N-(2-(2-oxo-4-phenyl-5-(piperazine-1-carbonyl)-3-o-tolyl-2,3-dihydro-1H-imidazol-1-yl)ethyl)isobutyramide]
7 | > 1000 nM | O=C(c1[nH]c(=O)n(-c2ccccc2)c1-c1cccc(F)c1)N1CCNCC1 [Example 21, 5-(3-Fluorophenyl)-1-phenyl-4-(piperazine-1-carbonyl)-1H-imidazol-2(3H)-one]
8 | 100 to 500 nM | COc1cccc(S(=O)(=O)NCCCn2c(C(=O)N3CCNCC3)c(-c3ccccc3)n(-c3ccccc3C)c2=O)c1 [Example 221, 3-Methoxy-N-(3-(2-oxo-4-phenyl-5-(piperazine-1-carbonyl)-3-o-tolyl-2,3-dihydro-1H-imidazol-1-yl)propyl)benzenesulfonamide]
9 | > 1000 nM | Cc1ccccc1-n1c(-c2ccccc2)c(C(=O)N2CCNCC2)n(CCCNC(=O)C2CCCCC2)c1=O [Example 247, N-(3-(2-oxo-4-phenyl-5-(piperazine-1-carbonyl)-3-o-tolyl-2,3-dihydro-1H-imidazol-1-yl)propyl)cyclohexanecarboxamide]
10 | 500 to 1000 nM | O=C(c1c(-c2ccccc2)n(C2CCCN(S(=O)(=O)c3ccccc3)C2)c(=O)n1Cc1ccccc1)N1CCNCC1 (stereo not shown) [Example 100, 1-Benzyl-4-phenyl-3-(1-(phenylsulfonyl)piperidin-3-yl)-5-(piperazine-1-carbonyl)-1H-imidazol-2(3H)-one]
11 | > 1000 nM | O=C(c1cccc(Cn2c(C(=O)N3CCNCC3)c(-c3ccccc3)n(-c3cccc(N4CCOCC4)c3)c2=O)c1)N1CCCCC1 [Example 58, 1-(3-Morpholinophenyl)-5-phenyl-4-(piperazine-1-carbonyl)-3-(3-(piperidine-1-carbonyl)benzyl)-1H-imidazol-2(3H)-one]
12 | < 100 nM | CCCCS(=O)(=O)Nc1ccccc1-n1c(-c2ccccc2)c(C(=O)N2CCNC[C@H]2Cc2ccccc2)[nH]c1=O [Example 128, (R)—N-(2-(4-(2-Benzylpiperazine-1-carbonyl)-2-oxo-5-phenyl-2,3-dihydro-1H-imidazol-1-yl)phenyl)butane-1-sulfonamide]
13 | > 1000 nM | Cc1ccccc1-n1c(-c2ccccc2)c(C(=O)N2CCNCC2)n(CCCNC(=O)c2ccc(Cl)cc2)c1=O [Example 243, 4-Chloro-N-(3-(2-oxo-4-phenyl-5-(piperazine-1-carbonyl)-3-o-tolyl-2,3-dihydro-1H-imidazol-1-yl)propyl)benzamide]

From US8148367B2 (Takeda Pharmaceutical Company Limited, priority 2008, dated 2012)
